Results: paper PMC10290335 (Malaria Journal, 2023)

Experiments:
[1] = test system: Anopheles stephensi mosquitoes; assay: Anopheles stephensi membrane feeding screening assay (survival and activity); assay type: in vivo; settings: for Average activity score: score +2 flying, +1 moving, 0 dead; for activity against An. stephensi: at Cmax levels observed in clinical PK samples
Experimental: The final DMSO content in blood was 0.1%, which was also the DMSO concentration used for the negative control assays (0.1% DMSO in blank blood). Inclusion of blank fractions as additional negative controls were not considered, because it would not have been feasible to also test the corresponding blank fraction for each metabolite fraction (F1–F9). The blood preparations were rotated at room temperature for 20 min to ensure a uniform metabolite distribution (Rotator Genie, Scientific Industries, Bohemia, USA). The dissolution of the metabolites was confirmed by LC–MS/MS.
Around 50–70 female mosquitoes aged 5–10 days post-emergence were transferred with a mouth aspirator into 20 mL paper cups. A piece of mosquito netting was used to cover the cups. Mosquitoes were starved for 24 h before treatment. The mosquito blood meals were heated in a water bath (SAHARA PPO S5P Heated Bath Circulators, Thermo Fisher Scientific, New Hampshire, USA) for 20 min at 39 °C. A Petri dish (35 mm × 10 mm, BD, Franklin Lakes, USA) was filled with 3 mL of warm blood, sealed with a piece of sealing film (Parafilm®, Huberlab AG, Aesch, Switzerland). The Petri dish was placed upside down on top of the net sealing the paper cup. Female mosquitoes were allowed to feed for 20 min on the blood through the net and the sealing film. The feeding was conducted in a climate chamber (HPP110, Memmert GmbH + Co.KG, Schwabach, Germany) at 27 °C, 70% humidity, and 30% light intensity. After feeding, the cups were put on ice to immobilise the mosquitoes and only the fully engorged mosquitoes were selected for the assay. The mosquitoes were returned to the climate chamber to assess their activity and survival for 3 days.
In the framework of screening assays, mosquitoes were treated with blood containing each metabolite corresponding to Cmax levels observed in PK samples. […] In screening assays, eleven treatments were evaluated with three replicates using three batches of 50–70 mosquitoes.

[2] = Clinical pharmacokinetics of ivermectin metabolites in blood of healthy volunteers; assay type: in vivo, human; settings: for Cmax [ratio]: area/internal standard area ratio; for Cmax [ratio] / Half-life / MRTlast / Tmax: whole blood, 12 subjects, mean ± SE; for Cmax [ratio] / Half-life / MRTlast: 12 mg ivermectin, NCA; for Tmax: single oral 12 mg ivermectin
Experimental: Peripheral venous blood samples were collected before dosing and after 1, 2, 4, 6, 8, 12, 24, 48 and 72 h. Blood samples (50 µL) were extracted by the addition of 150 µL ISTD solution. Samples were mixed for 1 min and centrifuged for 30 min at 3220×g and 15 °C (5810 R centrifuge). Twenty microlitres of supernatant were injected into the LC–MS/MS system to determine the signal intensity of the metabolites.
The different LC–MS/MS settings were applied for the metabolism, pharmacokinetic and metabolite fractioning assays (Additional file 1: Table S1, S2, S3). All analyses were performed on a modular HPLC (Shimadzu, Kyoto, Japan) composed of four pumps (2 × LC-30AD, 2 × LC-20AD), an autosampler (SIL 30-AC MP), a system controller (CBM-20A), two degassing units (DGU-20A5 and DGU-20A3R), a column oven (CTO-20AC), a low-pressure valve (FCV-12AH), and a fraction collector (FRC-12A). The HPLC system was connected to an API 5000 triple quadrupole mass spectrometer (AB Sciex, Ontario, Canada) that was equipped with a turbo electrospray ionization source. The system was operated with Analyst Software 1.7 (AB Sciex) and acquired data were analysed using MultiQuant Software 3.0.3 (AB Sciex).
The integral method “linear up log down” was used on area/internal standard area ratio.
In total, three T0 blank blood samples originating from different PK study participants were used to resuspend the metabolites (Additional file 1: Table S5). The signal intensity was recorded for every metabolite by extracting the 50 µL blood with 150 µL of ISTD solution. The metabolite peak area was determined by LC–MS/MS (see section LC-MS/MS analysis of ivermectin). Moreover, the PK samples of all study participants were equally extracted and analysed to derive the maximal blood level (Cmax) from the blood level-time curves. Afterwards, the mean metabolite peak area of the spiked blank blood was compared with the mean peak area of the Cmax samples (Additional file 1: Table S5). The amount of each metabolite fraction was either reduced or increased to match the peak area of Cmax samples. If the metabolite was not detectable in PK samples, the amount of metabolite was adjusted to the lower limit of detection of the method. In this case, blank blood was spiked with the metabolite fraction to receive a signal intensity that is three times larger than the corresponding noise level.

[3] = mean of PK subjects 1-12, 50 µL blood

| Compound | Average activity score ([1]; 0 h post feeding) | Average activity score ([1]; 24 h post feeding) | Average activity score ([1]; 48 h post feeding) | Average activity score ([1]; 72 h post feeding) | Observed Cmax, peak area ([2]; PK subject 1, 50 µL blood) | Observed Cmax, peak area ([2]; PK subject 2, 50 µL blood) | Observed Cmax, peak area ([2]; PK subject 3, 50 µL blood) | Observed Cmax, peak area ([2]; PK subject 4, 50 µL blood) | Observed Cmax, peak area ([2]; PK subject 5, 50 µL blood) | Observed Cmax, peak area ([2]; PK subject 6, 50 µL blood) | Observed Cmax, peak area ([2]; PK subject 7, 50 µL blood) | Observed Cmax, peak area ([2]; PK subject 8, 50 µL blood) | Observed Cmax, peak area ([2]; PK subject 9, 50 µL blood) | Observed Cmax, peak area ([2]; PK subject 10, 50 µL blood) | Observed Cmax, peak area ([2]; PK subject 11, 50 µL blood) | Observed Cmax, peak area ([2]; PK subject 12, 50 µL blood) | Cmax [ratio] [2] | Observed Cmax, peak area [2, 3] | Half-life [2] | Tmax [2] | also measured |
| --- | --- | --- | --- | --- | --- | --- | --- | --- | --- | --- | --- | --- | --- | --- | --- | --- | --- | --- | --- | --- | --- |
| 3″-O-desmethyl, 26-hydroxy-H2B1a [M6] | 2.00 | 1.89 | 1.91 | 1.42 | 3.04E+03 counts | 1.56E+03 counts | 2.10E+03 counts | 1.60E+03 counts | 1.15E+03 counts | 3.23E+03 counts | 1.62E+03 counts | 1.82E+03 counts | 1.80E+03 counts | 1.99E+03 counts | 2.12E+03 counts | 2.69E+03 counts | 0.002 ± 0.0002 ratio | 2.06E+03 counts | 32.4 ± 4.1 h | 5.4 ± 0.4 h | activity against An. stephensi [1]: minor mosquitocidal properties; mean survival of mosquitoes after blood meal ([1]; blood meal at Cmax level): decreased; MRTlast [2]: 18.3 ± 1.6 h |
| CCC(C)C1OC2(CCC1C)CC1CC(CC=C(C)C(OC3CC(OC)C(OC4CC(O)C(O)C(C)O4)C(C)O3)C(C)C=CC=C3COC4C(O)C(CO)=CC(C(=O)O1)C34O)O2 (centres unmarked) [M4, 3″-O-desmethyl, 4-hydroxy-H2B1a] | 2.00 | 1.84 | 1.30 | 0.57 | 6.13E+03 counts | 4.65E+03 counts | 5.03E+03 counts | 4.08E+03 counts | 2.43E+03 counts | 7.98E+03 counts | 4.09E+03 counts | 5.21E+03 counts | 4.12E+03 counts | 5.38E+03 counts | 5.67E+03 counts | 5.92E+03 counts | 0.004 ± 0.0004 ratio | 5.06E+03 counts | 57.5 ± 13.2 h | 6.0 ± 0.2 h | activity against An. stephensi [1]: minor mosquitocidal properties; mean survival of mosquitoes after blood meal ([1]; blood meal at Cmax level): decreased; mosquito survival ([1]; blood meal at Cmax level, observation period of 3 days): 35%; MRTlast [2]: 29.4 ± 1.7 h |
| 26-hydroxy-H2B1a [M3] | 2.00 | 1.82 | 1.86 | 1.67 | 6.21E+03 counts | 3.33E+03 counts | 4.98E+03 counts | 2.70E+03 counts | 3.63E+03 counts | 5.52E+03 counts | 4.44E+03 counts | 4.04E+03 counts | 3.41E+03 counts | 4.42E+03 counts | 4.22E+03 counts | 4.51E+03 counts | 0.003 ± 0.0003 ratio | 4.28E+03 counts | 15.9 ± 2.8 h | 5.3 ± 0.2 h | MRTlast [2]: 13.9 ± 1.3 h |
| 26-hydroxy-H2B1a monosaccharide [M7] | 2.00 | 1.85 | 1.80 | 1.69 | 1.31E+03 counts | 7.70E+02 counts | 9.70E+02 counts | 7.68E+02 counts | 8.12E+02 counts | 1.39E+03 counts | 1.26E+03 counts | 1.09E+03 counts | 7.88E+02 counts | 9.63E+02 counts | 1.21E+03 counts | 9.57E+02 counts |  | 1.02E+03 counts |  | 6.1 ± 0.4 h |  |
| 4, 26-dihydroxy- H2B1a [M8] | 2.00 | 1.91 | 1.93 | 1.68 | 7.02E+02 counts | 5.34E+02 counts | 4.91E+02 counts | 3.41E+02 counts | 3.43E+02 counts | 6.41E+02 counts | 3.42E+02 counts | 4.91E+02 counts | 4.29E+02 counts | 4.93E+02 counts | 2.79E+02 counts | 4.55E+02 counts |  | 4.62E+02 counts |  | 5.0 ± 0.3 h |  |
| CC[C@H](C)[C@H]1O[C@]2(CC[C@@H]1CO)C[C@@H]1C[C@@H](C/C=C(\C)[C@@H](O[C@H]3C[C@H](OC)[C@@H](O)[C@H](C)O3)[C@@H](C)/C=C/C=C3\CO[C@@H]4[C@H](O)C(C)=C[C@@H](C(=O)O1)[C@]34O)O2 [M5, 24-hydroxy-H2B1a monosaccharide] | 2.00 | 1.90 | 1.86 | 1.81 | 7.86E+02 counts | 5.85E+02 counts | 1.01E+03 counts | 7.22E+02 counts | 6.06E+02 counts | 1.25E+03 counts | 8.58E+02 counts | 6.84E+02 counts | 6.59E+02 counts | 7.23E+02 counts | 8.95E+02 counts | 7.29E+02 counts |  | 7.92E+02 counts |  | 6.4 ± 0.4 h |  |
